Test results as given in patent US20220072015A1, “Methods of Inhibiting Pathological Angiogenesis” (Unity Biotechnology, Inc., priority 2017, published 2022).

Assays:
[1] = test system: senescent fibroblasts (SnCs), IMR90 cells; assay: Senolytic activity: killing irradiated senescent IMR90 fibroblasts vs replicating or quiescent fibroblasts (CellTiter-Glo); assay type: cell-based, human; details: for Best SI: specificity for senescent cells vs replicating or quiescent fibroblasts, 1.0 = non-specific; for senolytic activity, potency: result in words
Excerpt: Human fibroblast IMR90 cells can be obtained from the American Type Culture Collection (ATCC®) with the designation CCL-186. The cells are maintained at <75% confluency in DMEM containing FBS and Pen/Strep in an atmosphere of 3% O2, 10% CO2, and ˜95% humidity. The cells are divided into three groups: irradiated cells (cultured for 14 days after irradiation prior to use), proliferating normal cells (cultured at low density for one day prior to use), and quiescent cells (cultured at high density for four day prior to use).
On day 0, the irradiated cells are prepared as follows. IMR90 cells are washed, placed in T175 flasks at a density of 50,000 cells per mL, and irradiated at 10-15 Gy. Following irradiation, the cells are plated at 100 μL in 96-well plates. On days 1, 3, 6, 10, and 13, the medium in each well is aspirated and replaced with fresh medium.
On day 10, the quiescent healthy cells are prepared as follows. IMR90 cells are washed, combined with 3 mL of TrypLE trypsin-containing reagent (Thermofisher Scientific, Waltham, Mass.) and cultured for 5 min until the cells have rounded up and begin to detach from the plate. Cells are dispersed, counted, and prepared in medium at a concentration of 50,000 cells per mL. 100 μL of the cells is plated in each well of a 96-well plate. Medium is changed on day 13.
On day 13, the proliferating healthy cell population is prepared as follows. Healthy IMR90 cells are washed, combined with 3 mL of TrypLE and cultured for 5 minutes until the cells have rounded up and begin to detach from the plate. Cells are dispersed, counted, and prepared in medium at a concentration of 25,000 cells per mL. 100 μL of the cells is plated in each well of a 96-well plate.
On day 14, test Bcl-2 inhibitors or MDM2 inhibitors are combined with the cells as follows. A DMSO dilution series of each test compound is prepared at 200 times the final desired concentration in a 96-well PCR plate. Immediately before use, the DMSO stocks are diluted 1:200 into prewarmed complete medium. Medium is aspirated from the cells in each well, and 100 μL/well of the compound containing medium is added.
Candidate senolytic agents for testing are cultured with the cells for 6 days, replacing the culture medium with fresh medium and the same compound concentration on day 17. Bcl-2 inhibitors like 001967 are cultured with the cells for 3 days. The assay system uses the properties of a thermostable luciferase to enable reaction conditions that generate a stable luminescent signal while simultaneously inhibiting endogenous ATPase released during cell lysis. At the end of the culture period, 100 μL of CellTiter-Glo® reagent (Promega Corp., Madison, Wis.) is added to each of the wells. The cell plates are placed for 30 seconds on an orbital shaker, and luminescence is measured.
Furthermore, even if the compound is potent, it would not be suitable for use as a therapeutic unless it preferentially kills senescent cells with a high degree of selectivity. Accordingly, compounds in the library showing high Bcl binding affinity were further screened for their ability to kill irradiated fibroblasts, in comparison with replicating fibroblasts or fibroblasts that were quiescent (due to confluence) but not senescent.

[2] = target: Bcl isoforms; assay: Binding affinity for the Bcl isoforms; details: result in words
Excerpt: The ability of candidate compounds to inhibit Bcl-2 and Bcl-xL activity can be measured on the molecular level by direct binding. This assay uses a homogenous assay technology based on oxygen channeling that is marketed by PerkinElmer Inc., Waltham, Mass.: see Eglin et al., Current Chemical Genomics, 2008, 1, 2-10. The test compound is combined with the target Bcl protein and a peptide representing the corresponding cognate ligand, labeled with biotin. The mixture is then combined with streptavidin bearing luminescent donor beads and luminescent acceptor beads, which proportionally reduces luminescence if the compound has inhibited the peptide from binding to the Bcl protein.
Bcl-2, Bcl-xL and Bcl-w are available from Sigma-Aldrich Co., St. Louis, Mo. Biotinylated BIM peptide (ligand for Bcl-2) and BAD peptide (ligand for Bcl-xL) are described in US 2016/0038503 A1. AlphaScreen® Streptavidin donor beads and Anti-6×His AlphaLISA® acceptor beads are available from PerkinElmer.
To conduct the assay, a 1:4 dilution series of the compound is prepared in DMSO, and then diluted 1:100 in assay buffer. In a 96-well PCR plate, the following are combined in order: 10 μL peptide (120 nM BIM or […]), 10 μL test compound, and 10 μL Bcl protein (0.8 nM Bcl-2/W or 0.4 nM Bcl-XL). The assay plate is incubated in the dark at room temperature for 24 h. The next day, donor beads and acceptor beads are combined, and 5 μL is added to each well. After incubating in the dark for 30 minute, luminescence is measured using a plate reader, and the affinity or degree of inhibition by each test compound is determined.

Row | Compound | binding affinities (Ki) for the Bcl isoforms [2] | Best SI [1] | senolytic activity, potency [1]
1 | CCn1c(C)c(S(C)(=O)=O)c(-c2cc(F)cc(N3CCN(c4ccc(NS(=O)(=O)c5ccc(N[C@H](CCN6CCC(O)CC6)CSc6ccccc6)c(S(=O)(=O)C(F)(F)F)c5)cc4)CC3)c2)c1-c1ccc(F)cc1 [BM-1192] | – | 60.0 | –
2 | Cc1c(C(=O)O)c(-c2cccc(N3CCN(c4ccc(NS(=O)(=O)c5ccc(N[C@H](CCN6CCC(O)CC6)CSc6ccccc6)c(S(=O)(=O)C(F)(F)F)c5)cc4)CC3)c2)c(-c2ccc(Cl)cc2)n1C(C)C [BM-962] | – | 18.5 | –
3 | CCn1c(C)c(C(=O)O)c(-c2cccc(N3CCN(c4ccc(NS(=O)(=O)c5ccc(N[C@H](CCN6CCC(O)CC6)CSc6ccccc6)c(S(=O)(=O)C(F)(F)F)c5)cc4)CC3)c2)c1-c1ccc(Cl)cc1 [BM-957] | – | 11.7 | –

Further lines, with some results ahead:

Row | binding affinities (Ki) for the Bcl isoforms [2] | Compound | Best SI [1] | senolytic activity, potency [1]
4 | nanomole to picomole range | Cc1c(S(C)(=O)=O)c(-c2cc(F)cc(N3CCN(c4ccc(NS(=O)(=O)c5ccc(N[C@H](CCN6CCC(C(=O)O)CC6)CSc6ccccc6)c(S(=O)(=O)C(F)(F)F)c5)cc4)CC3)c2)c(-c2ccc(Cl)cc2)n1C(C)C [BM-1244] | 66.7 | –
5 | nanomole to picomole range | Cc1c(S(C)(=O)=O)c(-c2cc(F)cc(N3CCN(c4ccc(NS(=O)(=O)c5ccc(N[C@H](CCN6CCC(O)CC6)CSc6ccccc6)c(S(=O)(=O)C(F)(F)F)c5)cc4)CC3)c2)c(-c2ccc(F)cc2)n1C(C)C [BM-1195] | 128.7 | potent in the nanomole range
6 | nanomole to picomole range | Cc1c(S(C)(=O)=O)c(-c2cc(F)cc(N3CCN(c4ccc(NS(=O)(=O)c5ccc(N[C@H](CCN6CCC(O)CC6)CSc6ccccc6)c(S(=O)(=O)C(F)(F)F)c5)cc4)CC3)c2)c(-c2ccc(Cl)cc2)n1C(C)C [BM-1197] | 366.7 | potent in the nanomole range
